Read-outs that look alike come from different tables or passages of the source.

The values below come from US20030207792A1, “Treating cancer” (priority 2002, published 2003).

What all share (assay type): cell-based
Data set [1] has as its system HCT116 cells. The data set is described as follows: TUNEL assay (ApopTag) for apoptosis 48 h after transfection. On the procedure:
(§1) Sense and antisense phosphorothionate oligonucleotide with the sequence set out in SEQ1 and SEQ2 respectively were synthesised in a 380B DNA synthesiser. Each oligonucleotide was premixed with lipofectin reagent and diluted in DMEM (Gibco). 6 cm plates of HCT116 cells at 40-50% confluence were rinsed once with 4 ml serum free DMEM and transfected with the oligonucleotides at a final concentration of 1 μM and the lipofectin reagent at a final concentration of 19 μg/ml according to the manufacturer's instructions (Life Technologies Inc., Gaithersburg, Md.). After 4 hours, Foetal Calf Serum (Gibco) was added to a final concentration of 10%. A lipofectin only transfection was performed as a control. Cell extracts were harvested after 48 h and examined by Western blot analysis with a pRb antibody. Equal loading of protein samples was confirmed by Coomassie blue staining or by immunoreactivity with an anti-actin antibody (Sigma). The intensities of the Rb bands were quantised with an image scanner (Molecular Dynamics). […] The treatment with the sense oligonucleotide led to about a 5% reduction in the level of pRb. […] Apoptosis in the cultures 48 h after transfection was tested for using the TUNEL assay. An in situ apoptosis detection kit ApopTag (Oncor, Gaithersburg, Md.) was used as recommended by the manufacturer. The percentage of TUNEL positive cells was 1.5+/−1% for the lipofectin treated culture, 3+/−0.5% for the culture transfected with the sense oligonucleotide and 18+/−0.5% for the culture transfected with the antisense oligonucleotide. Thus, the sense oligonucleotide caused about a two-fold increase in apoptosis, but the antisense oligonucleotide caused over a 10-fold increase in apoptosis. As the antisense oligonucleotide inhibits growth and increases apoptosis, it is thus an effective chemotherapeutic agent.

Data set [2] relates to pRb. The data set is described as follows: Western blot analysis of pRb level in HCT116 cells 48 h after oligonucleotide transfection. The following applies: oligonucleotide 1 μM with lipofectin 19 μg/ml, extracts after 48 h, Western blot band intensity. On the procedure: as §1, with “The percentage of TUNEL positive cells was 1.5+/−1% for the lipofectin treated culture, 3+/−0.5% for the culture transfected with the sense oligonucleotide and 18+/−0.5% for the culture transfected with the antisense oligonucleotide. Thus, the sense oligonucleotide caused about a two-fold increase in apoptosis, but the antisense oligonucleotide caused over a 10-fold increase in apoptosis. As the antisense oligonucleotide inhibits growth and increases apoptosis, it is thus an effective chemotherapeutic agent.” left out
(In general: A western blot detects proteins with antibodies after separation by electrophoresis.)

For data set [3], the system named is HCT116 cells. The data set is described as follows: Growth curves of transfected HCT116 cultures. The following applies: oligonucleotide 1 μM with lipofectin. On the procedure: as §1, with “The percentage of TUNEL positive cells was 1.5+/−1% for the lipofectin treated culture, 3+/−0.5% for the culture transfected with the sense oligonucleotide and 18+/−0.5% for the culture transfected with the antisense oligonucleotide. Thus, the sense oligonucleotide caused about a two-fold increase in apoptosis, but the antisense oligonucleotide caused over a 10-fold increase in apoptosis. As the antisense oligonucleotide inhibits growth and increases apoptosis, it is thus an effective chemotherapeutic agent.” left out

Consider “5′-GTCATGCCGCCCAAAACC-3′ (phosphorothioate, further chemistry not given here) [sense oligonucleotide, reference compound]”, for which, in data set [1], the “fold increase in apoptosis” value is “two-fold”.
As to “5′-GGTTTTGGGCGGCATGAC-3′ (DNA, all phosphorothioate, methylation of C not given here) [antisense oligonucleotide]”, the “level of pRb expression relative to the control culture treated only with lipofectin” value in data set [2] is listed as “about 30%”. In data set [3], the “effect on growth (growth curves) compared with the lipofectin-treated control culture” value is recorded as “displayed growth inhibition”. Also, in data set [1] (HCT116 cells, 48 h after transfection, oligonucleotide 1 μM), the “percentage of TUNEL positive cells” value is given as 18+/−0.5%. Also, in data set [1] (HCT116 cells, 48 h after transfection, versus lipofectin treated culture), the “fold increase in apoptosis” value was over 10 fold.
